Source: ChEMBL document CHEMBL4334508, “Oleanolic Acid Derivatives as Potential Inhibitors of HIV-1 Protease” (J Nat Prod, 2019)

Biological target: Protease (Human immunodeficiency virus 1, UniProt Q9YQ12)
Test: Inhibition of HIV1 protease expressed in Escherichia coli using Abz-Ala-Arg-Val-Nle-Tyr(NO2)-Glu-Ala-Nle-NH2 peptide as substrate by FRET assay

Chain of Protease (Q9YQ12 whole entry): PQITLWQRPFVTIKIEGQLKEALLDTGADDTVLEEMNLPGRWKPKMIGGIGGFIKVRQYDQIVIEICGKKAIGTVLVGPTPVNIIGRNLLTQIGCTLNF

Q: Which IC50 does the source give for `CC(C)[C@H](NC(=O)CCCCCCCCCCNC(=O)[C@]12CCC(C)(C)C[C@H]1C1=CC[C@@H]3[C@@]4(C)CC[C@H](OC(=O)c5ccccc5)C(C)(C)[C@@H]4CC[C@@]3(C)[C@]1(C)CC2)C(=O)O` here?
A: Its IC50 is greater than 50 µM.

Q: Which IC50 does the source give for `CCCCCC(=O)O[C@H]1CC[C@]2(C)[C@H]3CC=C4[C@@H]5CC(C)(C)CC[C@]5(C(=O)NCCCC(=O)N[C@@H](C)C(=O)O)CC[C@@]4(C)[C@]3(C)CC[C@H]2C1(C)C` here?
A: Its IC50 is greater than 50 µM.

Q: `CCCCCC(=O)O[C@H]1CC[C@]2(C)[C@H]3CC=C4[C@@H]5CC(C)(C)CC[C@]5(C(=O)NCCCC(=O)N[C@H](C(=O)O)C(C)C)CC[C@@]4(C)[C@]3(C)CC[C@H]2C1(C)C` was tested. Which IC50 did it give?
A: The IC50 was greater than 50 µM.

Q: For `CC(C)[C@H](NC(=O)CCCNC(=O)[C@]12CCC(C)(C)C[C@H]1C1=CC[C@@H]3[C@@]4(C)CC[C@H](OC(=O)CCC(=O)O)C(C)(C)[C@@H]4CC[C@@]3(C)[C@]1(C)CC2)C(=O)O`, which IC50 is on record?
A: The IC50 was 41.5 µM.

Q: `CC1(C)CC[C@]2(C(=O)NCCCC(=O)NCC(=O)O)CC[C@]3(C)C(=CC[C@@H]4[C@@]5(C)CC[C@H](OC(=O)c6ccccc6)C(C)(C)[C@@H]5CC[C@]43C)[C@@H]2C1` was tested. Which IC50 did it give?
A: Its IC50 is greater than 50 µM.

Q: With `CC(=O)O[C@H]1CC[C@]2(C)[C@H]3CC=C4[C@@H]5CC(C)(C)CC[C@]5(C(=O)NCCCCCC(=O)N[C@H](C(=O)O)C(C)C)CC[C@@]4(C)[C@]3(C)CC[C@H]2C1(C)C` as the compound, how does the IC50 read?
A: Its IC50 is 30.3 µM.

Q: Which IC50 does the source give for `CC(C)[C@H](NC(=O)CCCCCNC(=O)[C@]12CCC(C)(C)C[C@H]1C1=CC[C@@H]3[C@@]4(C)CC[C@H](OC(=O)CC(C)(C)CC(=O)O)C(C)(C)[C@@H]4CC[C@@]3(C)[C@]1(C)CC2)C(=O)O` here?
A: Its IC50 is 23.2 µM.

Q: For `CC(=O)O[C@H]1CC[C@]2(C)[C@H]3CC=C4[C@@H]5CC(C)(C)CC[C@]5(C(=O)NCCCCCC(=O)NCC(=O)O)CC[C@@]4(C)[C@]3(C)CC[C@H]2C1(C)C`, which IC50 is on record?
A: Its IC50 is greater than 50 µM.

Q: How did the IC50 turn out when `CCCC(=O)O[C@H]1CC[C@]2(C)[C@H]3CC=C4[C@@H]5CC(C)(C)CC[C@]5(C(=O)NCCCC(=O)O)CC[C@@]4(C)[C@]3(C)CC[C@H]2C1(C)C` was run?
A: Its IC50 is greater than 50 µM.

Q: How did the IC50 turn out when `C[C@H](NC(=O)CCCCCCCCCCNC(=O)[C@]12CCC(C)(C)C[C@H]1C1=CC[C@@H]3[C@@]4(C)CC[C@H](OC(=O)CCCC(=O)O)C(C)(C)[C@@H]4CC[C@@]3(C)[C@]1(C)CC2)C(=O)O` was run?
A: Its IC50 is greater than 50 µM.

Q: Which IC50 does the source give for `CC1(C)CC[C@]2(C(=O)NCCCC(=O)NCC(=O)O)CC[C@]3(C)C(=CC[C@@H]4[C@@]5(C)CC[C@H](OC(=O)CCCC(=O)O)C(C)(C)[C@@H]5CC[C@]43C)[C@@H]2C1` here?
A: Its IC50 is greater than 50 µM.

Q: With `CCCCCCCCCCCC(=O)O[C@H]1CC[C@]2(C)[C@H]3CC=C4[C@@H]5CC(C)(C)CC[C@]5(C(=O)NCCCCCCCCCCC(=O)N[C@@H](C)C(=O)O)CC[C@@]4(C)[C@]3(C)CC[C@H]2C1(C)C` as the compound, how does the IC50 read?
A: Its IC50 is greater than 50 µM.

Q: `CC(=O)O[C@H]1CC[C@]2(C)[C@H]3CC=C4[C@@H]5CC(C)(C)CC[C@]5(C(=O)NCCCCCCCCCCC(=O)N[C@H](C(=O)O)C(C)C)CC[C@@]4(C)[C@]3(C)CC[C@H]2C1(C)C` was tested. Which IC50 did it give?
A: The IC50 was greater than 50 µM.

Q: How did the IC50 turn out when `CCC(=O)O[C@H]1CC[C@]2(C)[C@H]3CC=C4[C@@H]5CC(C)(C)CC[C@]5(C(=O)NCCCCCCCCCCC(=O)O)CC[C@@]4(C)[C@]3(C)CC[C@H]2C1(C)C` was run?
A: Its IC50 is greater than 50 µM.

Q: With `CC(C)[C@H](NC(=O)CCCCCNC(=O)[C@]12CCC(C)(C)C[C@H]1C1=CC[C@@H]3[C@@]4(C)CC[C@H](OC(=O)CCCC(=O)O)C(C)(C)[C@@H]4CC[C@@]3(C)[C@]1(C)CC2)C(=O)O` as the compound, how does the IC50 read?
A: The IC50 was 17.9 µM.

Q: How did the IC50 turn out when `CCCCCCCCCCCC(=O)O[C@H]1CC[C@]2(C)[C@H]3CC=C4[C@@H]5CC(C)(C)CC[C@]5(C(=O)NCCCCCCCCCCC(=O)O)CC[C@@]4(C)[C@]3(C)CC[C@H]2C1(C)C` was run?
A: The IC50 was greater than 50 µM.

Q: Which IC50 does the source give for `CC(C)(CC(=O)O)CC(=O)O[C@H]1CC[C@]2(C)[C@H]3CC=C4[C@@H]5CC(C)(C)CC[C@]5(C(=O)NCCCCCCCCCCC(=O)O)CC[C@@]4(C)[C@]3(C)CC[C@H]2C1(C)C` here?
A: The IC50 was greater than 50 µM.

Q: `CCC(=O)O[C@H]1CC[C@]2(C)[C@H]3CC=C4[C@@H]5CC(C)(C)CC[C@]5(C(=O)NCCCCCCCCCCC(=O)NCC(=O)O)CC[C@@]4(C)[C@]3(C)CC[C@H]2C1(C)C` was tested. Which IC50 did it give?
A: Its IC50 is greater than 50 µM.

Q: `CC1(C)CC[C@]2(C(=O)NCCCCCCCCCCC(=O)NCC(=O)O)CC[C@]3(C)C(=CC[C@@H]4[C@@]5(C)CC[C@H](OC(=O)CCCC(=O)O)C(C)(C)[C@@H]5CC[C@]43C)[C@@H]2C1` was tested. Which IC50 did it give?
A: The IC50 was greater than 50 µM.

Q: For `CCCC(=O)O[C@H]1CC[C@]2(C)[C@H]3CC=C4[C@@H]5CC(C)(C)CC[C@]5(C(=O)NCCCCCC(=O)NCC(=O)O)CC[C@@]4(C)[C@]3(C)CC[C@H]2C1(C)C`, which IC50 is on record?
A: Its IC50 is greater than 50 µM.

Q: How did the IC50 turn out when `C[C@H](NC(=O)CCCNC(=O)[C@]12CCC(C)(C)C[C@H]1C1=CC[C@@H]3[C@@]4(C)CC[C@H](OC(=O)c5ccccc5)C(C)(C)[C@@H]4CC[C@@]3(C)[C@]1(C)CC2)C(=O)O` was run?
A: Its IC50 is 47.1 µM.

Q: Which IC50 does the source give for `CC(C)[C@H](NC(=O)CCCCCNC(=O)[C@]12CCC(C)(C)C[C@H]1C1=CC[C@@H]3[C@@]4(C)CC[C@H](OC(=O)CCC(=O)O)C(C)(C)[C@@H]4CC[C@@]3(C)[C@]1(C)CC2)C(=O)O` here?
A: Its IC50 is 9.6 µM.

Q: `C[C@H](NC(=O)CCCCCNC(=O)[C@]12CCC(C)(C)C[C@H]1C1=CC[C@@H]3[C@@]4(C)CC[C@H](OC(=O)c5ccccc5)C(C)(C)[C@@H]4CC[C@@]3(C)[C@]1(C)CC2)C(=O)O` was tested. Which IC50 did it give?
A: The IC50 was greater than 50 µM.

Q: With `C[C@H](NC(=O)CCCCCCCCCCNC(=O)[C@]12CCC(C)(C)C[C@H]1C1=CC[C@@H]3[C@@]4(C)CC[C@H](OC(=O)CCC(=O)O)C(C)(C)[C@@H]4CC[C@@]3(C)[C@]1(C)CC2)C(=O)O` as the compound, how does the IC50 read?
A: The IC50 was greater than 50 µM.

Q: With `CCCCCC(=O)O[C@H]1CC[C@]2(C)[C@H]3CC=C4[C@@H]5CC(C)(C)CC[C@]5(C(=O)NCCCC(=O)NCC(=O)O)CC[C@@]4(C)[C@]3(C)CC[C@H]2C1(C)C` as the compound, how does the IC50 read?
A: The IC50 was greater than 50 µM.

Q: Which IC50 does the source give for `CCCC(=O)O[C@H]1CC[C@]2(C)[C@H]3CC=C4[C@@H]5CC(C)(C)CC[C@]5(C(=O)NCCCCCC(=O)O)CC[C@@]4(C)[C@]3(C)CC[C@H]2C1(C)C` here?
A: Its IC50 is greater than 50 µM.

Q: `CCCCCC(=O)O[C@H]1CC[C@]2(C)[C@H]3CC=C4[C@@H]5CC(C)(C)CC[C@]5(C(=O)NCCCCCCCCCCC(=O)NCC(=O)O)CC[C@@]4(C)[C@]3(C)CC[C@H]2C1(C)C` was tested. Which IC50 did it give?
A: Its IC50 is greater than 50 µM.

Q: `CCCCCCCCCCCC(=O)O[C@H]1CC[C@]2(C)[C@H]3CC=C4[C@@H]5CC(C)(C)CC[C@]5(C(=O)NCCCCCC(=O)O)CC[C@@]4(C)[C@]3(C)CC[C@H]2C1(C)C` was tested. Which IC50 did it give?
A: Its IC50 is greater than 50 µM.

Q: Which IC50 does the source give for `CCC(=O)O[C@H]1CC[C@]2(C)[C@H]3CC=C4[C@@H]5CC(C)(C)CC[C@]5(C(=O)NCCCCCC(=O)N[C@H](C(=O)O)C(C)C)CC[C@@]4(C)[C@]3(C)CC[C@H]2C1(C)C` here?
A: Its IC50 is greater than 50 µM.

Q: For `CCC(=O)O[C@H]1CC[C@]2(C)[C@H]3CC=C4[C@@H]5CC(C)(C)CC[C@]5(C(=O)NCCCCCC(=O)O)CC[C@@]4(C)[C@]3(C)CC[C@H]2C1(C)C`, which IC50 is on record?
A: Its IC50 is greater than 50 µM.

Q: For `CC(C)[C@H](NC(=O)CCCCCCCCCCNC(=O)[C@]12CCC(C)(C)C[C@H]1C1=CC[C@@H]3[C@@]4(C)CC[C@H](OC(=O)CCC(=O)O)C(C)(C)[C@@H]4CC[C@@]3(C)[C@]1(C)CC2)C(=O)O`, which IC50 is on record?
A: The IC50 was greater than 50 µM.

Q: Which IC50 does the source give for `CCCC(=O)O[C@H]1CC[C@]2(C)[C@H]3CC=C4[C@@H]5CC(C)(C)CC[C@]5(C(=O)NCCCC(=O)N[C@@H](C)C(=O)O)CC[C@@]4(C)[C@]3(C)CC[C@H]2C1(C)C` here?
A: Its IC50 is greater than 50 µM.

Q: How did the IC50 turn out when `CCCC(=O)O[C@H]1CC[C@]2(C)[C@H]3CC=C4[C@@H]5CC(C)(C)CC[C@]5(C(=O)NCCCCCCCCCCC(=O)N[C@@H](C)C(=O)O)CC[C@@]4(C)[C@]3(C)CC[C@H]2C1(C)C` was run?
A: The IC50 was greater than 50 µM.
